Assay results reported in ChEMBL document CHEMBL1201862, “PubChem BioAssay data set” (2004).
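Step 1: Grow cells in 96-well plates. Step 2: Expose to compound for 48 hours at 5 concentrations. Step 3: Interpolate endpoints linearly; if unreached, use highest concentration. GI50 is the concentration that inhibits growth by half.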 Active and inactive are the calls of the source. Cut-off read from the data, not from the text of the source: active = GI50 up to about 1.1 µM and inactive = higher.

Columns and labels:
Assay in all cases: DTP human tumour cell line panel, 48 h
MDA-N = system: MDA-N
Hs-578T = system: Hs-578T
Malme-3M = system: Malme-3M
NCI-H23 = system: NCI-H23
SK-MEL-2 = system: SK-MEL-2
NCI-H226 = system: NCI-H226
HOP-62 = system: HOP-62
HCT-15 = system: HCT-15
TK-10 = system: TK-10
OVCAR-3 = system: OVCAR-3
SN12C = system: SN12C
SF-268 = system: SF-268
T47D = system: T47D
CCRF-CEM = system: CCRF-CEM
COLO 205 = system: COLO 205
UACC-62 = system: UACC-62
UO-31 = system: UO-31
A549 = system: A549
HL-60 = system: HL-60
SF-539 = system: SF-539

Measured: GI50

Cc1cccc(CNc2[nH]cnc3nncc2-3)c1
inactive: MDA-N > 100 µM | Hs-578T > 100 µM | Malme-3M > 100 µM | NCI-H23 > 100 µM | SK-MEL-2 > 100 µM | NCI-H226 49.5 µM | HOP-62 > 100 µM | TK-10 > 100 µM | OVCAR-3 > 100 µM | SN12C 72.8 µM | SF-268 > 100 µM | T47D 78.3 µM | CCRF-CEM > 100 µM | COLO 205 95.9 µM | UACC-62 > 100 µM | UO-31 47.4 µM | A549 > 100 µM | HL-60 > 100 µM | SF-539 > 100 µM
> 100 µM: HCT-15

Cn1c(=O)c2nc(COCc3nc4c(=O)n(C)c(=O)n(C)c4[nH]3)[nH]c2n(C)c1=O
> 100 µM: HCT-15
inactive: MDA-N > 100 µM | Hs-578T > 100 µM | Malme-3M > 100 µM | NCI-H23 > 100 µM | SK-MEL-2 > 100 µM | NCI-H226 > 100 µM | HOP-62 > 100 µM | TK-10 > 100 µM | OVCAR-3 > 100 µM | SN12C > 100 µM | SF-268 > 100 µM | T47D > 100 µM | CCRF-CEM > 100 µM | COLO 205 > 100 µM | UACC-62 > 100 µM | UO-31 > 100 µM | A549 > 100 µM | HL-60 > 100 µM | SF-539 > 100 µM

CSc1nc(Br)nc2ncn(C3CC(Oc4ccc(C)cc4)C(COc4ccc(C)cc4)O3)c12 (centres undefined)
> 100 µM: HCT-15
inactive: MDA-N > 100 µM | Hs-578T 25.1 µM | Malme-3M > 100 µM | NCI-H23 > 100 µM | SK-MEL-2 > 100 µM | NCI-H226 > 100 µM | HOP-62 > 100 µM | TK-10 > 100 µM | OVCAR-3 > 100 µM | SN12C > 100 µM | SF-268 > 100 µM | T47D > 100 µM | CCRF-CEM > 100 µM | COLO 205 > 100 µM | UACC-62 > 100 µM | UO-31 17.7 µM | A549 > 100 µM | HL-60 > 100 µM | SF-539 28.9 µM

c1ccc(CSCCC(SCc2ccccc2)SCc2ccccc2)cc1
> 10 µM: HCT-15
inactive: MDA-N > 10 µM | Hs-578T > 10 µM | Malme-3M > 10 µM | NCI-H23 > 10 µM | SK-MEL-2 > 10 µM | NCI-H226 > 10 µM | HOP-62 > 10 µM | TK-10 > 10 µM | OVCAR-3 > 10 µM | SN12C > 10 µM | SF-268 > 10 µM | T47D > 10 µM | CCRF-CEM > 10 µM | COLO 205 > 10 µM | UACC-62 > 10 µM | UO-31 > 10 µM | A549 > 10 µM | HL-60 > 10 µM | SF-539 > 10 µM

C=CC(O)(CBr)CCC(Br)C(=C)C (centres undefined)
inactive: MDA-N > 10 µM | Hs-578T > 10 µM | Malme-3M > 10 µM | NCI-H23 > 10 µM | SK-MEL-2 > 10 µM | NCI-H226 > 10 µM | HOP-62 > 10 µM | TK-10 > 10 µM | OVCAR-3 > 10 µM | SN12C > 10 µM | SF-268 > 10 µM | T47D > 10 µM | CCRF-CEM > 10 µM | COLO 205 > 10 µM | UACC-62 > 10 µM | A549 > 10 µM | HL-60 > 10 µM | SF-539 > 10 µM
> 10 µM: HCT-15

Cc1cnoc1/N=C1\C=C(O)C(=O)c2ccccc21
12.2 µM: HCT-15
inactive: MDA-N 1.26 µM | Hs-578T 7.6 µM | Malme-3M 3.02 µM | NCI-H23 4.71 µM | SK-MEL-2 2.82 µM | NCI-H226 35.3 µM | HOP-62 10 µM | TK-10 > 100 µM | OVCAR-3 5.26 µM | SN12C 1.77 µM | SF-268 17.8 µM | T47D 27.9 µM | CCRF-CEM 16.1 µM | COLO 205 35.9 µM | UACC-62 4.71 µM | UO-31 10.8 µM | A549 6.7 µM | HL-60 10 µM | SF-539 21.4 µM

COC(=O)[C@]12CC[C@H]3CN(S(=O)(=O)c4ccc(C)cc4)[C@H]([C@H]31)[C@H](c1ccco1)N2S(=O)(=O)c1ccc(C)cc1
34 µM: HCT-15
inactive: MDA-N 24.7 µM | Hs-578T > 100 µM | Malme-3M 23.8 µM | NCI-H23 48.1 µM | SK-MEL-2 29.2 µM | NCI-H226 42.5 µM | HOP-62 66.4 µM | TK-10 56.5 µM | OVCAR-3 56.2 µM | SN12C 37.6 µM | SF-268 42.3 µM | T47D 14.1 µM | CCRF-CEM 45.3 µM | COLO 205 20.5 µM | UACC-62 19.4 µM | UO-31 29.3 µM | A549 31.2 µM | HL-60 30.2 µM | SF-539 > 100 µM
